Measurements reported in PMC6397271 (Scientific Reports, 2019).
Values after ≈ are worked out from the molar mass of the structure shown. Where two headings read alike, the source gives them in different places.

Assays:
[1] = system: sheep erythrocytes; assay: Erythrocyte lysis assay; type: cell-based; conditions: 37 °C, 1 hour, A450 nm; for cell lysis (haemolysis): 10^8 cells/ml, vs 4% Triton X-100, triplicates
Procedure: The protocol of the lysis assay is presented below.
To obtain sheep erythrocytes, 5 ml of fresh blood was centrifuged at 1000 × g for 10 min and washed 3 times with 0.9% NaCl. Cell suspension (final concentration of 10^8 cells/ml) in a volume of 75 µl was added to each well of the 96-well microtiter plate and incubated at 37 °C in the presence of the tested compounds. The range of their concentrations was 100–0.049 µM (diluted in saline solution), which included that of MIC values for the tested strains of the bacteria.
Plates with samples were incubated at 37 °C for 1 hour and then centrifuged at 1000 × g for 10 min to separate the unlysed erythrocytes. Next, the supernatant was transferred to a new plate. The absorbance (A) was measured spectrophotometrically at 450 nm of wavelength. The experiments were performed in triplicates.
The haemolysis percentage was calculated according to the equation presented by Sharma et al.[43]. The percentage of haemolysis = [(A450nm of test compound treated sample-A450nm of buffer treated sample)/(A450nm of 4%TritonX-100 treated samples-A450nm of buffer treated sample)] × 100.

[2] = system: Enterococcus faecium 3934825; assay: microbe, parasite or virus in culture; type: cell-based
In short: (§1)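 Broth microdilution MIC, resazurin read-out, n=3. Media: cation-adjusted MH broth for MRSA (N315 reference; 6347 clinical h-VISA), BHI broth for enterococci. Growth aerobic, 37 °C, 24 h; inocula titrated by CFU/ml plating.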

[3] = system: Enterococcus faecalis 3937158; assay: microbe, parasite or virus in culture; type: cell-based
In short: as §1

[4] = system: S. aureus MRSA N315; assay: microbe, parasite or virus in culture; type: cell-based, Staphylococcus aureus
In short: as §1

[5] = system: S. aureus MRSA 12673; assay: microbe, parasite or virus in culture; type: cell-based, Staphylococcus aureus; conditions: for MIC: raw MIC
In short: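 MICs were measured by microbroth dilution against MRSA in cation-adjusted Mueller-Hinton broth and enterococci in Brain Heart Infusion broth. Viability was read with resazurin dye.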

[6] = system: S. aureus MRSA hetero-VISA 6347; assay: microbe, parasite or virus in culture; type: cell-based, Staphylococcus aureus
In short: as §1

[7] = system: bacterial strain not named; assay: Raw data of the MIC measurement (absorbance); type: cell-based; conditions: concentration marked (MIC) in raw absorbance data
Procedure: The strains were grown in Mueller-Hinton broth (MH cation-adjusted, Becton Dickinson) or Brain Heart Infusion broth (BHI, Becton Dickinson), respectively. The cultivation was carried out in an aerobic atmosphere at 37 °C for 24 hours and, afterwards, the bacterial cultures were diluted in geometric progression with a proper broth. Next, 100 µl of each dilution was inoculated in an agar plate and incubated at 37 °C for 24 h. The next procedures included determination of Colony Forming Units (CFU)/ml and minimal inhibitory concentration (MIC) of the compounds in question. The latter procedure was carried out according to the microbroth dilution technique using 96-well plates. The MICs were evaluated by using the metabolic assay based on the resazurin dye. The assay was performed in triplicates.

[8] = BBB penetration, fluorescence microscopy of brain slices; type: in vivo, BALB/c male mice; conditions: iv tail vein 60 mg/kg, 2 hours, coronal cryo-sections, excitation 490 nm, emission 521 nm, n = 5
Procedure: In vivo experiments were performed on BALB/c male mice weighing between 20 and 30 g (the mouse model is widely used for estimation of drug BBB penetration). The animals (obtained from TAZD-CBU) were kept in a 12-hour day and night cycle at room temperature (20–22 °C), humidity 55–56% and fed with a standard diet and water ad libitum for at least 1 week before the experiment. Body temperature and weight were recorded on a regular daily schedule. It is confirmed that all procedures were carried out according to the guidelines outlined by the European Community Council Directive 2010/63/EEC, and they were approved by the local Ethical Committee Resolution 26/2014 (Bydgoszcz, Poland).
Fl-[Lys^7(PEG4-Van)]TP10 was administered to the mouse (n = 5) tail vein at a dose of 60 mg/kg in a volume of 100 μl of saline.
After 2 hours, the mice were sacrificed (by isoflurane overdose) and their brains were immediately removed from the cranium and cooled to 4 °C. Five, […] coronal cryo-sections of the brain were made starting from the frontal pole and moving to the occipital pole (HM 450 Sliding Microtome). The presence of the compound in question in the brain slices was visualized using a fluorescence microscope (Delta Optical IB-100, Delta Optical, Poland) at a fluorescence excitation and emission of 490 nm and 521 nm, respectively. […]

[9] = microbroth dilution, 96-well, resazurin, 37 °C, 24 h, mean ± SD, at least three independent experiments in triplicates
[10] = raw MIC, first block, test a, repetition 1, read-out: MIC1a
[11] = raw MIC, first block, test a, repetition 2, read-out: MIC2a
[12] = raw MIC, first block, test a, repetition 3, read-out: MIC3a
[13] = raw MIC, first block, test b, repetition 1, read-out: MIC1b
[14] = raw MIC, first block, test b, repetition 2, read-out: MIC2b
[15] = raw MIC, first block, test b, repetition 3, read-out: MIC3b
[16] = raw MIC, test a, repetition 1, read-out: MIC1a
[17] = raw MIC, test a, repetition 2, read-out: MIC2a
[18] = raw MIC, test a, repetition 3, read-out: MIC3a
[19] = raw MIC, test b, repetition 1, read-out: MIC1b
[20] = raw MIC, test b, repetition 2, read-out: MIC2b
[21] = raw MIC, test b, repetition 3, read-out: MIC3b
[22] = same test as μM value, mean ± SD

CC[C@H](C)[C@H](NC(=O)[C@H](CCCCN)NC(=O)[C@H](CCCCN)NC(=O)[C@H](C)NC(=O)[C@H](CC(C)C)NC(=O)[C@H](C)NC(=O)[C@H](C)NC(=O)[C@H](CC(C)C)NC(=O)[C@H](C)NC(=O)[C@H](CCCCN)NC(=O)[C@H](CC(C)C)NC(=O)[C@H](CC(N)=O)NC(=O)[C@@H](NC(=O)[C@H](CCCCN)NC(=O)CNC(=O)[C@H](CC(C)C)NC(=O)[C@H](CC(C)C)NC(=O)[C@H](Cc1ccc(O)cc1)NC(=O)CNC(=O)[C@H](C)NC(=O)c1cn(CCOCCOCCOCCOCCC(=O)N[C@@]2(C)C[C@H](O[C@H]3[C@H](Oc4c5cc6cc4Oc4ccc(cc4Cl)[C@@H](O)[C@@H](NC(=O)[C@@H](CC(C)C)NC)C(=O)N[C@@H](CC(N)=O)C(=O)N[C@H]6C(=O)N[C@H]4C(=O)N[C@H](C(=O)N[C@H](C(=O)O)c6cc(O)cc(O)c6-c6cc4ccc6O)[C@H](O)c4ccc(c(Cl)c4)O5)O[C@H](CO)[C@@H](O)[C@@H]3O)O[C@@H](C)[C@H]2O)nn1)[C@@H](C)CC)C(=O)N[C@@H](CC(C)C)C(N)=O [conjugate II, Van-PEG4-TP10]
cell lysis (haemolysis) ([1]; 12.5 µM): 5% | cell lysis (haemolysis) ([1]; 100 µM): 77% | hemolysis at MIC concentrations ([1]; 6.25–0.78 μM): lack of hemolysis | MIC [2, 9]: 25.0 ± 5.1 µM (≈ 98.9 µg/mL) | MIC [2, 10]: 25 µM (≈ 98.9 µg/mL) | MIC [2, 11]: 25 µM (≈ 98.9 µg/mL) | MIC [2, 12]: 12.5 µM (≈ 49.5 µg/mL) | MIC [2, 13]: 25 µM (≈ 98.9 µg/mL) | MIC [2, 14]: 25 µM (≈ 98.9 µg/mL) | MIC [2, 15]: 25 µM (≈ 98.9 µg/mL) | MIC [2, 16]: 98.91 µM (≈ 391 µg/mL) | MIC [2, 17]: 98.91 µM (≈ 391 µg/mL) | MIC [2, 18]: 49.46 µM (≈ 196 µg/mL) | MIC [2, 19]: 98.91 µM (≈ 391 µg/mL) | MIC [2, 20]: 98.91 µM (≈ 391 µg/mL) | MIC [2, 21]: 98.91 µM (≈ 391 µg/mL) | MIC in (μg/ml) [2, 22]: 98.9 ± 20.2 µg/mL (≈ 25 µM) | MIC [3, 9]: 25.0 ± 6.5 µM (≈ 98.9 µg/mL) | MIC [3, 10]: 25 µM (≈ 98.9 µg/mL) | MIC [3, 11]: 25 µM (≈ 98.9 µg/mL) | MIC [3, 12]: 12.5 µM (≈ 49.5 µg/mL) | MIC [3, 13]: 12.5 µM (≈ 49.5 µg/mL) | MIC [3, 14]: 25 µM (≈ 98.9 µg/mL) | MIC [3, 15]: 25 µM (≈ 98.9 µg/mL) | MIC [3, 16]: 98.91 µM (≈ 391 µg/mL) | MIC [3, 17]: 98.91 µM (≈ 391 µg/mL) | MIC [3, 19]: 98.91 µM (≈ 391 µg/mL) | MIC [3, 20]: 98.91 µM (≈ 391 µg/mL) | MIC [3, 21]: 98.91 µM (≈ 391 µg/mL) | MIC in (μg/ml) [3, 22]: 98.9 ± 21.8 µg/mL (≈ 25 µM) | MIC [4, 9]: 1.6 ± 0.8 µM (≈ 6.33 µg/mL) | MIC [4, 10]: 1.6 µM (≈ 6.33 µg/mL) | MIC [4, 11]: 3.2 µM (≈ 12.7 µg/mL) | MIC [4, 12]: 1.6 µM (≈ 6.33 µg/mL) | MIC [4, 13]: 1.6 µM (≈ 6.33 µg/mL) | MIC [4, 14]: 3.2 µM (≈ 12.7 µg/mL) | MIC [4, 15]: 1.6 µM (≈ 6.33 µg/mL) | MIC [4, 16]: 6.33 µM (≈ 25 µg/mL) | MIC [4, 17]: 12.66 µM (≈ 50.1 µg/mL) | MIC [4, 18]: 6.33 µM (≈ 25 µg/mL) | MIC [4, 19]: 6.33 µM (≈ 25 µg/mL) | MIC [4, 20]: 6.33 µM (≈ 25 µg/mL) | MIC [4, 21]: 6.33 µM (≈ 25 µg/mL) | MIC in (μg/ml) [4, 22]: 6.3 ± 2.6 µg/mL (≈ 1.59 µM) | MIC ([5]; first block, test a, repetition 1, read-out: MIC1a): 1.6 µM (≈ 6.33 µg/mL) | MIC ([5]; first block, test a, repetition 2, read-out: MIC2a): 3.2 µM (≈ 12.7 µg/mL) | MIC ([5]; first block, test a, repetition 3, read-out: MIC3a): 1.6 µM (≈ 6.33 µg/mL) | MIC ([5]; first block, test b, repetition 1, read-out: MIC1b): 1.6 µM (≈ 6.33 µg/mL) | MIC ([5]; first block, test b, repetition 2, read-out: MIC2b): 1.6 µM (≈ 6.33 µg/mL) | MIC ([5]; first block, test b, repetition 3, read-out: MIC3b): 1.6 µM (≈ 6.33 µg/mL) | MIC ([5]; test a, repetition 1, read-out: MIC1a): 6.33 µM (≈ 25 µg/mL) | MIC ([5]; test a, repetition 2, read-out: MIC2a): 12.66 µM (≈ 50.1 µg/mL) | MIC ([5]; test a, repetition 3, read-out: MIC3a): 6.33 µM (≈ 25 µg/mL) | MIC ([5]; test b, repetition 1, read-out: MIC1b): 6.33 µM (≈ 25 µg/mL) | MIC ([5]; test b, repetition 2, read-out: MIC2b): 6.33 µM (≈ 25 µg/mL) | MIC ([5]; test b, repetition 3, read-out: MIC3b): 6.33 µM (≈ 25 µg/mL) | MIC in (μg/ml) [5, 22]: 6.3 ± 2.6 µg/mL (≈ 1.59 µM) | MIC [6, 9]: 3.1 ± 0.8 µM (≈ 12.3 µg/mL) | MIC [6, 10]: 3.1 µM (≈ 12.3 µg/mL) | MIC [6, 11]: 3.1 µM (≈ 12.3 µg/mL) | MIC [6, 12]: 1.56 µM (≈ 6.17 µg/mL) | MIC [6, 13]: 1.56 µM (≈ 6.17 µg/mL) | MIC [6, 14]: 3.1 µM (≈ 12.3 µg/mL) | MIC [6, 15]: 1.56 µM (≈ 6.17 µg/mL) | MIC [6, 16]: 12.26 µM (≈ 48.5 µg/mL) | MIC [6, 17]: 12.26 µM (≈ 48.5 µg/mL) | MIC [6, 18]: 6.13 µM (≈ 24.3 µg/mL) | MIC [6, 19]: 6.13 µM (≈ 24.3 µg/mL) | MIC [6, 20]: 12.26 µM (≈ 48.5 µg/mL) | MIC [6, 21]: 6.13 µM (≈ 24.3 µg/mL) | MIC in (μg/ml) [6, 22]: 12.3 ± 3.6 µg/mL (≈ 3.11 µM) | MIC (marked in raw data) [7]: 1,56 µM

Fl-[Lys^7(PEG4-Van)]TP10 [conjugate IVa]
presence in mouse brain slices (fluorescence) [8]: presence of the conjugate coupled with fluorescein in the brain
